“And” between values parts separate entries of the source, which are not always exact repeats. Equal entries are not always repeated.
Legend:
[1] = test system: E. coli BW25113 exponential cells; assay: Survival of exponentially-growing cells (drop assay); format: cell-based, Escherichia coli
Protocol: FIG. 2. NPIMA eradicates Escherichia coli, Pseudomonas aeruginosa, and Staphylococcus aureus exponential cells. Survival after 6 hr for (a) E. coli BW25113 with NPIMA and 5-iodoindole at 100 μM, (b) P. aeruginosa PA14 with NPIMA and 5-iodoindole at 100 μM, and (c) S. aureus with NPIMA and 5-iodoindole at 200 μM. Asterisk indicates no viable cells detected. NPIMA, 5-nitro-3-phenyl-1H-indol-2-yl-methylamine hydrochloride.
FIG. 8. NPIMA structure function relationships. Exponential cells of Escherichia coli BW25113 were treated with (a) 2-(aminomethyl) indole, and (b) 2-methyl-5-nitro-3-phenyl-1H-indole for 6 hr. NPIMA, 5-nitro-3-phenyl-1Hindol-2-yl-methylamine hydrochloride.
(§1) For bacterial viability, cells were washed twice with 0.85% NaCl, resuspended in 1×PBS, and cell counts were determined via the drop assay (Donegan, Matyac, Seidler, & Porteous, 1991). For human cell viability, pre-cultured human cancer HT-29 cells were dispensed in 98 μl in 96-well plates with approximately 5,000 cells/well. NPIMA was added (2 μl) to produce concentrations of 5, 10, 100, and 200 μM. For controls, Triton X-100 (positive control) and DMSO (negative solvent control), were used, and the medium was used for background. Plates were incubated in a humidified incubator (37° C., 5% CO2) for 24 hr. Cell viability was determined via a cell counting kit (CCK-8 Kit, ab228554; Abcam), and cytotoxicity was determined via the lactate dehydrogenase (LDH) assay (LDH Assay Kit, MK401; Takara).

[2] = test system: E. coli K-12 BW25113; assay: Minimum inhibitory concentration (MIC); format: cell-based; details: Escherichia coli, LB, 24 hr
Protocol: (§2) The bacteria used in this study are E. coli K-12 BW25113 (Baba et al., 2006), S. aureus ATCC29213, and P. aeruginosa PA14 (Liberati et al., 2006). Lysogeny broth (LB; Bertani, 1951) was used at 37° C. for culturing the bacteria. 2-(Aminomethyl)-indole was obtained from Sigma-Aldrich (catalog number 563838), and 2-methyl-5-nitro-3-phenyl-1H-indole was obtained from ChemBridge (San Diego, CA).
(§3) To determine the MICs of NPIMA and 5-iodoindole for E. coli K-12, S. aureus, and P. aeruginosa PA14, cells were inoculated into LB at varying concentrations and grown for 24 hr. The MIC was determined as the lowest concentration that prevented an increase in growth as evidenced by a lack of change of turbidity.

[3] = test system: P. aeruginosa PA14; assay: Minimum inhibitory concentration (MIC); format: cell-based; details: Pseudomonas aeruginosa, LB, 24 hr
Protocol: as §2, §3

[4] = test system: S. aureus ATCC29213; assay: Minimum inhibitory concentration (MIC); format: cell-based; details: Staphylococcus aureus, LB, 24 hr
Protocol: as §2, §3

[5] = test system: S. aureus; assay: Lysis assays (total protein and DNA in supernatants); format: cell-based, Staphylococcus aureus; details: 100 μM, 6 hr
Protocol: FIG. 5. NPIMA lyses Escherichia coli, Pseudomonas aeruginosa, and Staphylococcus aureus. Total protein (a) and DNA (b) found in supernatants as evidence of cell lysis after treatment of cells at a turbidity of 0.8 at 600 nm with 100 μM NPIMA after 1 hr for E. coli and P. aeruginosa and 6 hr for S. aureus. NPIMA, 5-nitro-3-phenyl-1H-indol-2-yl-methylamine hydrochloride.
Exponentially-growing E. coli BW25113 cells (turbidity 0.8 at 600 nm) were washed twice with 0.85% NaCl, resuspended in 1 ml of 1×PBS, and NPIMA (100 μM) was added for 1 hr for E. coli and P. aeruginosa and 6 hr for S. aureus with shaking at 250 rpm (0.1% DMSO was used as the negative control). Cell supernatants were collected after centrifuging at 6,500 g (4° C. for 15 min), and total protein was measured by the Bicinchoninic Acid (BCA) protein assay Kit (Prod #23227; Pierce). DNA in the supernatant (199 μl) was detected by adding 1 μl of Picogreen (P7589; Invitrogen) and incubating for 5 min at room temperature in the dark room. The fluorescence signal was read by a Tecan microplate reader (Infinite M200PRO) with 480 nm excitation and 520 nm emission by utilizing a calibration curved made with plasmid pEX18Ap at 0, 0.004, 0.008, 0.016, 0.063, 0.125, 0.25, and 0.5 ng/μl.

[6] = test system: P. aeruginosa PA14 persister cells; assay: Survival of persister cells (CCCP/ciprofloxacin generated); format: cell-based, Pseudomonas aeruginosa; details: 100 μM
Protocol: FIG. 3. NPIMA kills Escherichia coli, Pseudomonas aeruginosa, persister cells. Survival of (a) E. coli BW25113 and (b) P. aeruginosa PA14 after treatment with NPIMA (100 μM), 5-iodoindole (5-II, 100 μM), and DMSO for 6 hr. Asterisk indicates no viable cells detected. DMSO, dimethyl sulfoxide; NPIMA, 5-nitro-3-phenyl-1H-indol-2-yl-methylamine hydrochloride.
E. coli persister cells were prepared following our previous method (Kim, Yamasaki, et al., 2018; Kwan, Valenta, Benedik, & Wood, 2013). Exponentially-growing cells (turbidity of 0.8 at 600 nm) were treated with rifampicin (100 μg/ml for 30 min) to stop transcription, washed, and any remaining nonpersister cells were lysed by ampicillin in LB (100 μg/ml for 3 hr). Cells were harvested by centrifugation (17,000 g for 1 min) and washed with 1× phosphate-buffered saline buffer (PBS, 8 g NaCl, 0.2 g KCl, 1.15 g Na2HPO4, and 0.2 g KH2PO4 per 1,000 ml) twice to remove all possible carbon sources, then resuspended with 1×PBS. […]
For bacterial viability, cells were washed twice with 0.85% NaCl, resuspended in 1×PBS, and cell counts were determined via the drop assay (Donegan, Matyac, Seidler, & Porteous, 1991). […] Cell viability was determined via a cell counting kit (CCK-8 Kit, ab228554; Abcam), and cytotoxicity was determined via the lactate dehydrogenase (LDH) assay (LDH Assay Kit, MK401; Takara).

[7] = test system: S. aureus exponentially-growing cells; assay: Killing at one MIC in PBS, NPIMA compared with cisplatin; format: cell-based, Staphylococcus aureus; details: 3 hr
Description: FIG. 7. NPIMA compared width cisplatin for killing Pseudomonas aeruginosa, Escherichia coli, and Staphylococcus aureus. Survival of exponentially-growing cells of P. aeruginosa PA14 (a), E. coli (b), and S. aureus (c) treated with one MIC of NPIMA (♦) and cisplatin (●) for 3 hr in PBS. DMSO (▴) and NaClO4 (*) were used as a negative controls. MIC, minimum inhibitory concentration; NPIMA, 5-nitro-3-phenyl-1H-indol-2-yl-methylamine hydrochloride.
as §1

## Cl.NCc1[nH]c2ccc([N+](=O)[O-])cc2c1-c1ccccc1 [NPIMA, [(5-nitro-3-phenyl-1H-indol-2-yl)methyl]amine hydrochloride]
[1]; 100 μM (1 MIC)
  time to eradicate exponentially-growing E. coli: ≤ 3 h
[1]; 100 μM, 6 hr
  killing of exponential E. coli cells: eradicated
[2]
  MIC: 100 µM and 15 µg/mL
[3]
  MIC: 250 µM
[4]
  MIC: 100 µM
[5]
  DNA released compared with DMSO alone: 1.82±0.05 fold
  total protein released compared with DMSO alone: 2.9±0.1 fold
[6]
  time to eradicate P. aeruginosa persister cells: 3 h
[7]
  effectiveness relative to cisplatin: less effective than cisplatin
